According to patent US20250382556A1, “MODULATION OF THE BRANCHED-CHAIN METABOLITE CONTENT OF FRUITS AND VEGETABLES” (BOARD OF TRUSTEES OF MICHIGAN STATE UNIVERSITY, priority 2024, published 2025):

Legend:
[1] = system: banana pulp; assay: Headspace volatile ester emissions of banana pulp sections treated with AHAS inhibitor; parameters: species or system Musa spp. AAA group, Cavendish subgroup, cv. Valery; key to 1-methylbutyl acetate emissions compared to control: —: Dash indicates no significant difference between treatments
From the text: Banana fruit at an early stage of ripening were infiltrated with AHAS inhibitors by two means. The first method was used for the effects of sulfonylureas on volatile and amino acid content, whereas the second was used to investigate the recovery of sulfonylurea-treated fruits after precursor application.
(§1) In the first method, mature green ‘Valery’ fruit were cut into ˜1 cm^2 sections, 2-mm thick, from transverse sections of fruit not treated with ethylene. Care was taken such that one edge of the square was from the edge of the pulp, thus representing an undisturbed or ‘live edge’ of cells that should be able to maintain unhindered gas exchange. Pulp sections were prepared in vials as above described for apples. Treatment solution: 0.5 mM halosulfuron-methyl (methyl 3-chloro-5-(4,6-dimethoxypyrimidin-2-ylcarbamoylsulfamoyl)-1-methylpyrazole-4-carboxylate, made from SANDEA®, Gowan Co. 75% w/w active ingredient; 0.1% Tween 20). Ripening was induced by injection of 1 μL ethylene into the vial's 20-mL headspace. The following day the vials were vented for 15 min before having the Mininert valve (Valco Instruments Co. Inc.) replaced on the vial but with a needle inserted to allow for gas diffusion. Daily for the following two days, 20 μL of freshly made inhibitor or water solution was added onto the pulp. The needles were again kept in the valves to maintain gas diffusion. The next day, and thus four days since initially preparing the vials, the needles were removed, and the vials were sealed and incubated for at least 1 hour at room temperature (22° C.) before headspace sampling.
Headspace volatiles from small tissue samples incubated in 22 mL vials were adsorbed for 30 s using a solid-phase micro extraction (SPME) fiber (65 μm PDMS-DVB; Supelco Analytical). The SPME fiber was then directly desorbed for 1 min in the injection port of a gas chromatograph (GC; HP-6890, Hewlett-Packard) coupled to a time-of-flight mass spectrometer (MS; Pegasus II, LECO). Whole fruits and banana slices were incubated for 20 min at room temperature (22° C.) in 1-L sealed Teflon jars before a 15-s, or 3-min adsorption and 1- or 2-min desorption. Adsorption times were adjusted to ensure instrument responses were in the linear range. All desorbed volatiles were cryofocused at the beginning of the column by immersing said region of the column in liquid nitrogen. After the desorption period, the run was initiated and the liquid nitrogen removed.
The conditions of the system were as follows. Injection port: 200° C., splitless, ultra-purified helium (99.999%) carrier gas, front inlet flow 1.5 mL·min^−1 constant, 10 mL·min^−1 purge flow, 11.5 mL·min^−1 total flow. Oven: initial temperature 40° C. for 0 min, ramped by 43° C.·min^−1 to 185° C. for 0 min. Column: HP-5 MS, 30 m×0.25 mm i.d., 0.25 μm film thickness (Agilent). Transfer line temperature 225° C. MS: Electron ionization (−70 eV), ion source temperature 200° C., solvent delay 50 sec, m/z range 29 to 400, detector voltage 1500 V, data collection rate 20 Hz.
Compounds were identified by comparison of the retention time and mass spectrum against authenticated reference standards and spectra (National Institute of Standards and Technology Mass Spectral Search Program Version 2.0, 2001). Volatiles were quantified by calibration with a standard of 59 authenticated, high-purity compounds (Sigma-Aldrich Co. and Fluka Chemical) including the target compounds. The standard was made by placing 0.5 μL of an equal-part mixture of the neat compounds onto a disc of filter paper before quickly placing the filter paper into a 4-L sealed flask fitted with a Mininert valve (for SPME fiber access, and allowed to vaporize for at least 6 hours. SPME adsorption and desorption times of the standard matched that of the samples quantified (e.g., 30-s adsorption, 1 min desorption when quantifying samples in 22-mL vials).
Statistical analysis was performed using SciPy (v1.6.2), RStudio (v2023.03.0+386), or Microsoft Excel (v16.89). […]

[2] = system: banana pulp; assay: Free amino acid content of banana pulp via UPLC-MS/MS after AHAS inhibitor treatment; parameters: species or system Musa spp. AAA group, Cavendish subgroup, cv. Valery; key to free asparagine content compared to control / free glutamine content compared to control / free histidine content compared to control / free isoleucine content compared to control / free lysine content compared to control / free methionine content compared to control / free phenylalanine content compared to control / free threonine content compared to control / free tryptophan content compared to control / free arginine content compared to control: —: Dash indicates no significant difference between treatments
Experimental: as §1
After volatile analysis, apple peel disks, collected peel of flowering quince, and ‘Valery’ pulp section samples were held at −80° C. for further amino acid analysis.
Frozen samples were ground to a powder in liquid nitrogen-chilled mortar and pestles. About 500 mg of tissue was vortexed for 10 sec in 2 mL of room temperature (22° C.) extraction solution (1:1:1 water:acetonitrile:ethanol, v/v/v) spiked with 2 nmoles of U-^13C,^15N labeled amino acids (MilliporeSigma) as internal standards and heated for 15 min in a 65° C. water bath. Extracts were briefly chilled on ice before centrifugation at 4400×g for 15 min at 4° C. The supernatant was filtered by centrifugation (0.2 μm nylon centrifugal filter; Costar, Corning) at 21000×g for 5 min at room temperature. 10 μL of the filtrate was transferred to an autosampler vial and diluted 100-fold with 990 μL of 10.1 mM perfluorohexanoic acid (PFHA) spiked with […] of internal standard. Thus the final concentration of internal standard was ˜2 μM.
An amino acid standard series was prepared from a premade mixture (MilliporeSigma, AAS18) that contained equal molar amounts of cystine and all 20 proteinogenic amino acids save for tryptophan, asparagine, glutamine, and cysteine. An equal molar mixture of tryptophan, asparagine, glutamine, and cysteine was subsequently prepared. To avoid dilution errors or artefacts from differing buffers, these amino acid stocks were aliquoted and desiccated such that a five-part standard series ranging from 250 μM to 25 nM would be produced upon resuscitation with 10 μL of spiked extraction buffer and 990 μL spiked PFHA solution.
Samples and amino acids were held overnight at −20° C. before analysis. Amino acids were analyzed with a Xevo TQ-S Micro UPLC (H-Class)-MS/MS (Waters) at the Michigan State University Mass Spectrometry and Metabolomics Core. Conditions were as follows. HPLC column: Acquirt UPLC HSS T3, 2.1×100 mm, 1.7 μm particle size (Waters), with a 0.2 μm pre-column filter (Waters). Mobile phase: A) 10 mM PFHA in water, B) acetonitrile. LC gradient: linear gradient, slope setting=6, flow rate=0.3 mL·min^−1, step 1) 0 min, 100% A, 0% B, 2) 1 min, 100% A, 0% B, 3) 8 min, 35% A, 65% B, 4) 8.01 min, 10% A, 90% B, 5) 9 min, 10% A, 90% B, 6) 9.01 min, 100% A, 0% B, 7) 13 min, 100% A, 0% B. Column temp: 40° C. Autosampler temp: 10° C. Injection volume: 10 μL. Tune parameters: electrospray ionization, standard ESI probe, capillary voltage=+1.0 kV, source temp=120° C., desolvation temp=350° C., desolvation gas=800 L·hr^−1, cone gas=40 L·hr^−1. […]

[3] = system: ‘Red Delicious’ apple fruit; assay: Physiology of MCP-treated stored apple fruit (respiration, firmness); type: in vivo, Malus x domestica Borkh.; details: Red Delicious after five months storage in air at 0° C. and warming
Experimental: ‘Gala’, ‘Empire’, ‘Jonagold’, and ‘Red Delicious’ apple fruit (Malus x domestica Borkh.) were harvested from local orchards at commercial maturity and transported to the laboratory during the 2022 and 2023 seasons. As determined by previously described methods, the fruit were at the developmental onset of ripening with no subjectively discernible aroma. ‘Gala’ and ‘Empire’ fruits began treatment immediately after arrival in the laboratory. ‘Jonagold’ fruit were held in air at 0° C. for two days before transfer to controlled atmosphere (CA) storage (1.5 O2, 3% CO2, 0° C.) and then kept in CA for twelve days to suppress ethylene action before the initiation of inhibitor treatment. ‘Red Delicious’ fruit were treated with 50 nL·^−1 1-methylcyclopropene (MCP) for 24 h at 0° C. The MCP was evolved from a commercial MCP product (EASYFRESH®, Fine Americas) in sealed chambers two days after harvest as previously described. The fruit were then stored in air at 0° C. for five months and were warmed to 22° C. for 24 h before sulfonylurea treatment. This low-dosage MCP treatment had very mild effects on physiology. […] Based on the internal ethylene concentration (˜100 μL·L^−1) and the total ester production (elevated and trending upwards), the fruit were considered to be of an advanced stage of ripeness, but not senescent. […]

[4] = Valery banana pulp sections, 0.5 mM

## COC(=O)c1c(Cl)nn(C)c1S(=O)(=O)NC(=O)Nc1nc(OC)cc(OC)n1 [halosulfuron-methyl, methyl 3-chloro-5-(4,6-dimethoxypyrimidin-2-ylcarbamoylsulfamoyl)-1-methylpyrazole-4-carboxylate]
[1]; Valery banana fruit
  ethyl acetate, butyl acetate, and butyl butanoate collectively reduced: 95.0%
  reduction in the total content of iso-branched-chain esters in the headspace: 90.3%
  sec-branched esters or related volatiles (2-pentanone, 2-pentanol, 1-methylbutyl acetate, 1-methylbutyl butanoate) affected by inhibitor treatment: None
[1]; [4]
  1-methylbutyl acetate emissions compared to control: —
  2-methylpropyl acetate (val) emissions compared to control: 2.0 ± 0.7%
  3-methylbutyl acetate (leu) emissions compared to control: 10.4 ± 5.4%
  butyl acetate emissions compared to control: 3.9 ± 2.7%
  ethyl acetate emissions compared to control: 3.9 ± 2.4%
  sum of anteiso- and iso-branched-chain esters emissions compared to control: 9.7 ± 3.6%
[2]; Valery banana fruit
  isoleucine levels: unchanged
  total content of free amino acids: increased
  valine and leucine less abundant: 57.6%
[2]; [4]
  free alanine content compared to control: 407.4 ± 66.8%
  free arginine content compared to control: —
  free asparagine content compared to control: —
  free aspartate content compared to control: 332.7 ± 30.1%
  free cysteine content compared to control: 264.2 ± 46.6%
  free glutamate content compared to control: 217.4 ± 23.9%
  free glutamine content compared to control: —
  free glycine content compared to control: 173.1 ± 39.9%
  free histidine content compared to control: —
  free isoleucine content compared to control: —
  free leucine content compared to control: 65.8 ± 6.1%
  free lysine content compared to control: —
  free methionine content compared to control: —
  free phenylalanine content compared to control: —
  free proline content compared to control: 188.4 ± 18.7%
  free serine content compared to control: 186.2 ± 14.5%
  free threonine content compared to control: —
  free tryptophan content compared to control: —
  free tyrosine content compared to control: 142.3 ± 25.1%
  free valine content compared to control: 14.3 ± 0.8%
  total free amino acid content compared to control: 150.6 ± 13.7%

## CC1=CC1 [MCP, 1-methylcyclopropene]
[3]
  respiration rate of MCP-treated fruit relative to untreated fruit: 88.7%
